SMILES strings stand for the structures.

The subject of this experiment is Tunicamycin induced ISR (ATF4 signal ratio between nucleus and cytoplasm) in wild-type HEK293 cells. Nature of the experiment: HEK-ATF4 High Content Imaging assay. The format is cell-based. Particulars: Homo sapiens, prevention of Tunicamycin induced ISR, 6 h incubation, ATF4 immunofluorescence nucleus/cytoplasm ratio. The method, then:
HEK-ATF4 High Content Imaging Assay
Example compounds were tested in the HEK-ATF4 High Content Imaging assay to assess their pharmacological potency to prevent Tunicamycin induced ISR. Wild-type HEK293 cells were plated in 384-well imaging assay plates at a density of 12,000 cells per well in growth medium (containing DMEM/F12, 10% FBS, 2 mM L-Glutamine, 100 U/mL Penicillin—100 μg/mL Streptomycin) and incubated at 37° C., 5% CO2. 24 h later, the medium was changed to 50 μL assay medium per well (DMEM/F12, 0.3% FBS, 2 mM L-Glutamine, 100 U/mL Penicillin—100 μg/mL Streptomycin). Example compounds were serially diluted in DMSO, spotted into intermediate plates and prediluted with assay medium containing 3.3 μM Tunicamycin to give an 11-fold excess of final assay concentration. In addition to the example compound testing area, the plates also contained multiples of control wells for assay normalization purposes, wells containing Tunicamycin but no example compounds (High control), as well as wells containing neither example compound nor Tunicamycin (Low control). The assay was started by transferring 5 μL from the intermediate plate into the assay plates, followed by incubation for 6 h at 37° C., 5% CO2. Subsequently, cells were fixed (4% PFA in PBS, 20 min at r.t.) and submitted to indirect ATF4 immunofluorescence staining (primary antibody rabbit anti ATF4, clone D4B8, Cell Signaling Technologies; secondary antibody Alexa Fluor 488 goat anti-rabbit IgG (H+L), Thermofisher Scientific). Nuclei were stained using Hoechst dye (Thermofisher Scientific), and plates were imaged on an Opera Phenix High Content imaging platform equipped with 405 nm and 488 nm excitation. Finally, images were analyzed using script based algorithms. The main readout HEK-ATF4 monitored the ATF4 signal ratio between nucleus and cytoplasm. Tunicamycin induced an increase in the overall ATF4 ratio signal, which was prevented by ISR modulating example compounds. In addition, HEK-CellCount readout was derived from counting the number of stained nuclei corresponding to healthy cells. This readout served as an internal toxicity control.
Usually IC50 stands for the midpoint of a concentration-inhibition curve. As for `O=C(N[C@H]1CC[C@H](c2nnc(OCCOC(F)(F)F)o2)NC1)c1cn2cc(Cl)cc2cn1` [Example 15, 7-chloro-N-[(3S,6R)-6-{5-[2-(trifluoromethoxy)ethoxy]-1,3,4-oxadiazol-2-yl}piperidin-3-yl]pyrrolo[1,2-a]pyrazine-3-carboxamide], the IC50 lay within 2 to 15 µM. To `O=C(N[C@H]1CC[C@H](c2nnc(OCCOC(F)(F)F)o2)NC1)c1ccc(OC(F)(F)F)nc1` [Example 16, 6-(trifluoromethoxy)-N-[(3S,6R)-6-{5-[2-(trifluoromethoxy)ethoxy]-1,3,4-oxadiazol-2-yl}piperidin-3-yl]pyridine-3-carboxamide] belongs 0.5 to 2 µM.

With `O=C(N[C@H]1CC[C@H](c2nnc(OCCOC(F)(F)F)o2)NC1)c1ccc(Cl)c(Cl)c1` [Example 17, 3,4-dichloro-N-[(3S,6R)-6-{5-[2-(trifluoromethoxy)ethoxy]-1,3,4-oxadiazol-2-yl}piperidin-3-yl]benzamide], the IC50 was in the range of 0.5 to 2 µM.

With `O=C(N[C@H]1CC[C@H](c2nnc(OCCOC(F)(F)F)o2)NC1)c1ccc(Cl)cc1` [Example 18, 4-chloro-N-[(3S,6R)-6-{5-[2-(trifluoromethoxy)ethoxy]-1,3,4-oxadiazol-2-yl}piperidin-3-yl]benzamide], the IC50 was 2 to 15 µM. Consider `O=C(N[C@H]1CC[C@H](c2nnc(OCCOC(F)(F)F)o2)NC1)c1cnc2c(F)c(Cl)ccc2c1` [Example 19, 7-chloro-8-fluoro-N-[(3S,6R)-6-{5-[2-(trifluoromethoxy)ethoxy]-1,3,4-oxadiazol-2-yl}piperidin-3-yl]quinoline-3-carboxamide], for which the half-inhibitory concentration (IC50) lay in the range of 0.001 to 0.5 µM.

`O=C(N[C@H]1CC[C@H](c2nnc(OCCOC(F)(F)F)o2)NC1)c1cc2cc(Cl)ccn2c1` [Example 20, 7-chloro-N-[(3S,6R)-6-{5-[2-(trifluoromethoxy)ethoxy]-1,3,4-oxadiazol-2-yl}piperidin-3-yl]indolizine-2-carboxamide]: the IC50 was 0.001 to 0.5 µM. To `O=C(N[C@H]1CC[C@H](c2nnc(OCCOC(F)(F)F)o2)NC1)c1cc2ccc(Cl)cn2c1` [Example 21, 6-chloro-N-[(3S,6R)-6-{5-[2-(trifluoromethoxy)ethoxy]-1,3,4-oxadiazol-2-yl}piperidin-3-yl]indolizine-2-carboxamide] belongs 0.001 to 0.5 µM. To `Cn1c(C(=O)N[C@H]2CC[C@H](c3nnc(OCCOC(F)(F)F)o3)NC2)cc2cc(C(F)(F)F)ccc21` [Example 22, 1-methyl-N-[(3S,6R)-6-{5-[2-(trifluoromethoxy)ethoxy]-1,3,4-oxadiazol-2-yl}piperidin-3-yl]-5-(trifluoromethyl)-1H-indole-2-carboxamide] belongs 0.5 to 2 µM; to `O=C(N[C@H]1CC[C@H](c2nnc(OCCOC(F)(F)F)o2)NC1)c1cccc(Cl)c1` [Example 23, 3-chloro-N-[(3S,6R)-6-{5-[2-(trifluoromethoxy)ethoxy]-1,3,4-oxadiazol-2-yl}piperidin-3-yl]benzamide], 2 to 15 µM; to `Cc1cc(C)cc(C(=O)N[C@H]2CC[C@H](c3nnc(OCCOC(F)(F)F)o3)NC2)c1` [Example 24, 3,5-dimethyl-N-[(3S,6R)-6-{5-[2-(trifluoromethoxy)ethoxy]-1,3,4-oxadiazol-2-yl}piperidin-3-yl]benzamide], 2 to 15 µM. To `Cc1ccc(C(=O)N[C@H]2CC[C@H](c3nnc(OCCOC(F)(F)F)o3)NC2)cc1C` [Example 25, 3,4-dimethyl-N-[(3S,6R)-6-{5-[2-(trifluoromethoxy)ethoxy]-1,3,4-oxadiazol-2-yl}piperidin-3-yl]benzamide] belongs 2 to 15 µM; to `Cc1cc(C(=O)N[C@H]2CC[C@H](c3nnc(OCCOC(F)(F)F)o3)NC2)sc1C` [Example 26, 4,5-dimethyl-N-[(3S,6R)-6-{5-[2-(trifluoromethoxy)ethoxy]-1,3,4-oxadiazol-2-yl}piperidin-3-yl]thiophene-2-carboxamide], 2 to 15 µM. As for `Cc1ccc(C(=O)N[C@H]2CC[C@H](c3nnc(OCCOC(F)(F)F)o3)NC2)cc1` [Example 27, 4-methyl-N-[(3S,6R)-6-{5-[2-(trifluoromethoxy)ethoxy]-1,3,4-oxadiazol-2-yl}piperidin-3-yl]benzamide], the IC50 was 2 to 15 µM.

Take `O=C(N[C@H]1CC[C@H](c2nnc(OCCOC(F)(F)F)o2)NC1)c1ccc(OC(F)(F)F)cc1` [Example 29, 4-(trifluoromethoxy)-N-[(3S,6R)-6-{5-[2-(trifluoromethoxy)ethoxy]-1,3,4-oxadiazol-2-yl}piperidin-3-yl]benzamide]: the IC50 was 0.001 to 0.5 µM. To `O=C(N[C@H]1CC[C@H](c2nnc(OCCOC(F)(F)F)o2)NC1)c1ccc2c(c1)OC(F)(F)O2` [Example 30, 2,2-difluoro-N-[(3S,6R)-6-{5-[2-(trifluoromethoxy)ethoxy]-1,3,4-oxadiazol-2-yl}piperidin-3-yl]-2H-1,3-benzodioxole-5-carboxamide] belongs 0.5 to 2 µM; to `Cc1cc(C(=O)N[C@H]2CC[C@H](c3nnc(OCCOC(F)(F)F)o3)NC2)ccc1Cl` [Example 31, 4-chloro-3-methyl-N-[(3S,6R)-6-{5-[2-(trifluoromethoxy)ethoxy]-1,3,4-oxadiazol-2-yl}piperidin-3-yl]benzamide], 2 to 15 µM.

On to `O=C(N[C@H]1CC[C@H](c2nnc(OCCOC(F)(F)F)o2)NC1)c1cc(F)c(Cl)c(F)c1` [Example 32, 4-chloro-3,5-difluoro-N-[(3S,6R)-6-{5-[2-(trifluoromethoxy)ethoxy]-1,3,4-oxadiazol-2-yl}piperidin-3-yl]benzamide], for which the IC50 fell in the range of 2 to 15 µM. `O=C(N[C@H]1CC[C@H](c2nnc(OCCOC(F)(F)F)o2)NC1)c1ccc(C(F)(F)F)c(F)c1` [Example 33, 3-fluoro-N-[(3S,6R)-6-{5-[2-(trifluoromethoxy)ethoxy]-1,3,4-oxadiazol-2-yl}piperidin-3-yl]-4-(trifluoromethyl)benzamide]: the half-maximal inhibitory concentration (IC50) lay within 0.5 to 2 µM.

`O=C(N[C@H]1CC[C@H](c2nnc(OCCOC(F)(F)F)o2)NC1)c1ccc(OC(F)(F)F)c(Cl)c1` [Example 34, 3-chloro-4-(trifluoromethoxy)-N-[(3S,6R)-6-{5-[2-(trifluoromethoxy)ethoxy]-1,3,4-oxadiazol-2-yl}piperidin-3-yl]benzamide]: the IC50 fell in the range of 0.5 to 2 µM.

As to `O=C(N[C@H]1CC[C@H](c2nnc(OCCOC(F)(F)F)o2)NC1)c1ccc(F)c(C(F)(F)F)c1` [Example 35, 4-fluoro-N-[(3S,6R)-6-{5-[2-(trifluoromethoxy)ethoxy]-1,3,4-oxadiazol-2-yl}piperidin-3-yl]-3-(trifluoromethyl)benzamide], the IC50 lay in the range of 2 to 15 µM. To `O=C(N[C@H]1CC[C@H](c2nnc(OCCOC(F)(F)F)o2)NC1)c1ccc(C(F)(F)F)c(Cl)c1` [Example 36, 3-chloro-N-[(3S,6R)-6-{5-[2-(trifluoromethoxy)ethoxy]-1,3,4-oxadiazol-2-yl}piperidin-3-yl]-4-(trifluoromethyl)benzamide] belongs 2 to 15 µM; to `O=C(N[C@H]1CC[C@H](c2nnc(OCCOC(F)(F)F)o2)NC1)c1ccc(Cl)c(C(F)(F)F)c1` [Example 37, 4-chloro-N-[(3S,6R)-6-{5-[2-(trifluoromethoxy)ethoxy]-1,3,4-oxadiazol-2-yl}piperidin-3-yl]-3-(trifluoromethyl)benzamide], 2 to 15 µM; to `O=C(N[C@H]1CC[C@H](c2nnc(OCCOC(F)(F)F)o2)NC1)c1cc(Cl)c(Cl)cn1` [Example 38, 4,5-dichloro-N-[(3S,6R)-6-{5-[2-(trifluoromethoxy)ethoxy]-1,3,4-oxadiazol-2-yl}piperidin-3-yl]pyridine-2-carboxamide], 2 to 15 µM.

`O=C(N[C@H]1CC[C@H](c2nnc(OCCOC(F)(F)F)o2)NC1)c1ccc(Cl)c(Cl)n1` [Example 39, 5,6-dichloro-N-[(3S,6R)-6-{5-[2-(trifluoromethoxy)ethoxy]-1,3,4-oxadiazol-2-yl}piperidin-3-yl]pyridine-2-carboxamide]: the half-maximal inhibitory concentration (IC50) was 2 to 15 µM. For `O=C(N[C@H]1CC[C@H](c2nnc(OCCOC(F)(F)F)o2)NC1)c1ccc(Cl)c(OC(F)(F)F)c1` [Example 40, 4-chloro-3-(trifluoromethoxy)-N-[(3S,6R)-6-{5-[2-(trifluoromethoxy)ethoxy]-1,3,4-oxadiazol-2-yl}piperidin-3-yl]benzamide], the half-inhibitory concentration (IC50) lay within 2 to 15 µM. To `Cn1c(C(=O)N[C@H]2CC[C@H](c3nnc(OCCOC(F)(F)F)o3)NC2)cc2ccc(C(F)(F)F)cc21` [Example 42, 1-methyl-N-[(3S,6R)-6-[5-[2-(trifluoromethoxy)ethoxy]-1,3,4-oxadiazol-2-yl]-3-piperidyl]-6-(trifluoromethyl)indole-2-carboxamide] belongs 0.5 to 2 µM; to `Cc1ccc(C(=O)N[C@H]2CC[C@H](c3nnc(OCCOC(F)(F)F)o3)NC2)cc1Cl` [Example 44, 3-chloro-4-methyl-N-[(3S,6R)-6-[5-[2-(trifluoromethoxy)ethoxy]-1,3,4-oxadiazol-2-yl]-3-piperidyl]benzamide], 0.5 to 2 µM.
